# According to patent publication US12630600B2 (MEDIMMUNE LIMITED, priority 2022, dated 2026):
# Read-outs that look alike come from different tables or passages of the source. Starred links: 1 amine or outer side, 2 acyl side, 3 side chain; linkers in the order of their positions; H or OH if unused. Non-standard residues stand in square brackets, D forms with d. Residues, ends and D or L forms follow the SMILES beside them. Groups on a side chain read outwards from the residue. *: point of attachment. C20 diacid = O=C(O)CCCCCCCCCCCCCCCCCCC(=O)*; C18 diacid = O=C(O)CCCCCCCCCCCCCCCCC(=O)*; γGlu = O=C(O)[C@H](CCC(=O)[*:2])N[*:1]; αMeF = C[C@](N)(Cc1ccccc1)C(=O)O; AEEA = NCCOCCOCC(=O)O; Aib = CC(C)(N)C(=O)O
# What was measured:
# [1] = molecular target: T1, human GLP-1 receptor (hGLP-1R) (Homo sapiens, UniProt P43220); assay: cAMP production (HTRF) in CHO cells expressing human GLP-1 receptor; format: cell-based; settings: for EC50: geometric mean, cAMP, read-out: hGLP-1R EC50; for % Relative Potency Ratio: Table 8, % GLP-1R activity relative to GLP-1 / % GlucR activity relative to glucagon
# T1 construct: expressed in transfected cells; host or cells: CHO
# T1 sequence (P43220 24-463): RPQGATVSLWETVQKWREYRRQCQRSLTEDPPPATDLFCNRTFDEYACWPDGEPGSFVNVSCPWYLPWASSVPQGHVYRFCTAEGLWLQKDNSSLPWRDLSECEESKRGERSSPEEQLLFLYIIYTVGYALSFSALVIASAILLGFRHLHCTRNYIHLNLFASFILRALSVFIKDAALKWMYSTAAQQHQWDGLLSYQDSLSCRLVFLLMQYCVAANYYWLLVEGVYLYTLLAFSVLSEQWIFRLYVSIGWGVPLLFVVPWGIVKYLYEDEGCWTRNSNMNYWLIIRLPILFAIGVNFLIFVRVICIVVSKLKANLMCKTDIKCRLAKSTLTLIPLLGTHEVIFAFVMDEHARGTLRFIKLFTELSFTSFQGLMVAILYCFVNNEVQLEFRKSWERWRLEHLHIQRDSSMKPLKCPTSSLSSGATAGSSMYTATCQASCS
# [2] = molecular target: T2, human glucagon receptor (hGCGR) (Homo sapiens, UniProt P47871); assay: cAMP production (HTRF) in CHO cells expressing human glucagon receptor; format: cell-based; settings: read-out: hGluc-R EC50
# T2 construct: expressed in transfected cells; host or cells: CHO
# T2 sequence (P47871 26-477): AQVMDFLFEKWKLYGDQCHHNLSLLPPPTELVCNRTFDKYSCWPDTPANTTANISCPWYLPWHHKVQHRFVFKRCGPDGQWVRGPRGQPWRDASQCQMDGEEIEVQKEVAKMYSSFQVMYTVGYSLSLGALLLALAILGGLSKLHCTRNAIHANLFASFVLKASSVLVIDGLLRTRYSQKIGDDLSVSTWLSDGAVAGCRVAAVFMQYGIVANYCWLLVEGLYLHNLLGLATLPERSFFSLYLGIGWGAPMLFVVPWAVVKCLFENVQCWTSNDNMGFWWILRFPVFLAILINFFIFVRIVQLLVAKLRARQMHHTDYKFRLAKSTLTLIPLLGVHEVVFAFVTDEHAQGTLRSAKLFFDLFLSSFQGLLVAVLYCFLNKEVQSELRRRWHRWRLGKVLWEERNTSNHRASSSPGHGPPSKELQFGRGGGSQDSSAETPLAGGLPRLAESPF
# Description: Cells were re-suspended in assay buffer at a batch-dependent optimized concentration (typically hGLP-1R cells at 1×10^5 cells/mL, hGCGR cells at 2×10^5 cells/mL).
# Cells were added to the assay plate using a multidrop dispenser and incubated at room temperature for 30 minutes before measuring the cAMP level using a cAMP dynamic 2 homogeneous time resolved Fluorescence (HTRF) kit (Cisbio Bioassays #62AM4PEJ) following the two-step protocol as per manufacturer's recommendations. In brief, anti-cAMP cryptate (donor fluorophore) and cAMP-d2 (acceptor fluorophore) were made up separately by diluting each 1 in 20 in conjugate and lysis buffer provided in the kit. Anti-cAMP cryptate was added to all wells of the assay plate, followed by cAMP-d2 added to all wells except non-specific binding (NSB) wells (to which conjugate and lysis buffer was added).
# Data was transformed to % Delta F as described in the manufacturer's guidelines and analyzed by 4-parameter logistic fit to determine EC50 values.
# [3] = Table 8, peptides modified at position 24, CHO cells
# [4] = Table 8, peptides modified at position 24, geometric mean, CHO cells
Structure (SMILES),"EC50 [1, 3]",% Relative Potency Ratio [1],"EC50 [2, 4]","EC50 ([1]; Table 6, modification at position 17, CHO cells expressing hGLP-1R)","EC50 ([2]; Table 6, modification at position 17, CHO cells expressing hGCGR, geometric mean)"
CC[C@H](C)[C@H](NC(=O)C(C)(C)NC(=O)[C@H](CCCCNC(=O)COCCOCCNC(=O)COCCOCCNC(=O)CC[C@H](NC(=O)CC[C@H](NC(=O)CCCCCCCCCCCCCCCCC(=O)O)C(=O)O)C(=O)O)NC(=O)[C@@H](NC(=O)[C@](C)(Cc1ccccc1)NC(=O)[C@H](CC(=O)O)NC(=O)[C@H](CCC(N)=O)NC(=O)[C@H](C)NC(=O)[C@H](C)NC(=O)[C@H](CCCNC(=N)N)NC(=O)[C@H](CO)NC(=O)[C@H](CC(=O)O)NC(=O)[C@H](CC(C)C)NC(=O)[C@](C)(Cc1ccccc1)NC(=O)[C@H](CCCCN)NC(=O)[C@H](CO)NC(=O)[C@@H](NC(=O)[C@H](CC(=O)O)NC(=O)[C@H](CO)NC(=O)[C@@H](NC(=O)[C@](C)(Cc1ccccc1)NC(=O)[C@H](CO)NC(=O)CNC(=O)[C@H](Cc1c[nH]cn1)NC(=O)C(C)(C)NC(=O)[C@@H](N)Cc1c[nH]cn1)[C@@H](C)O)C(C)C)C(C)C)C(=O)N[C@@H](C)C(=O)N[C@@H](CC(N)=O)C(=O)N[C@H](C(N)=O)[C@@H](C)O [Peptide 372] (H-H[Aib]HGS[αMeF]TSDVSK[αMeF]LDSRAAQD[αMeF]VK([AEEA-AEEA-γGlu-γGlu-C18 diacid])[Aib]IANT-NH2; N-terminus assumed),0.0718 nM,1.0,0.0351 nM,,
CC[C@H](C)[C@H](NC(=O)C(C)(C)NC(=O)[C@H](CCCCNC(=O)COCCOCCNC(=O)COCCOCCNC(=O)CC[C@H](NC(=O)CC[C@H](NC(=O)CCCCCCCCCCCCCCCCCCC(=O)O)C(=O)O)C(=O)O)NC(=O)[C@@H](NC(=O)[C@](C)(Cc1ccccc1)NC(=O)[C@H](CC(=O)O)NC(=O)[C@H](CCC(N)=O)NC(=O)[C@H](C)NC(=O)[C@H](C)NC(=O)[C@H](CCCNC(=N)N)NC(=O)[C@H](CO)NC(=O)[C@H](CC(=O)O)NC(=O)[C@H](CC(C)C)NC(=O)[C@](C)(Cc1ccccc1)NC(=O)[C@H](CCCCN)NC(=O)[C@H](CO)NC(=O)[C@@H](NC(=O)[C@H](CC(=O)O)NC(=O)[C@H](CO)NC(=O)[C@@H](NC(=O)[C@](C)(Cc1ccccc1)NC(=O)[C@H](CO)NC(=O)CNC(=O)[C@H](Cc1c[nH]cn1)NC(=O)C(C)(C)NC(=O)[C@@H](N)Cc1c[nH]cn1)[C@@H](C)O)C(C)C)C(C)C)C(=O)N[C@@H](C)C(=O)N[C@@H](CC(N)=O)C(=O)N[C@H](C(=O)NCC(=O)NCC(N)=O)[C@@H](C)O [Peptide 376] (H-H[Aib]HGS[αMeF]TSDVSK[αMeF]LDSRAAQD[αMeF]VK([AEEA-AEEA-γGlu-γGlu-C20 diacid])[Aib]IANTGG-NH2; N-terminus assumed),0.156 nM,10.8,0.853 nM,,
CC(C)C[C@H](NC(=O)[C@H](Cc1c[nH]c2ccccc12)NC(=O)[C@H](CCCNC(=N)N)NC(=O)[C@@H](NC(=O)[C@H](Cc1ccccc1)NC(=O)[C@H](CC(=O)O)NC(=O)[C@H](CCC(N)=O)NC(=O)[C@H](C)NC(=O)[C@H](CCCNC(=N)N)NC(=O)[C@H](CCCCNC(=O)COCCOCCNC(=O)COCCOCCNC(=O)CC[C@H](NC(=O)CCCCCCCCCCCCCCCCCCC(=O)O)C(=O)O)NC(=O)[C@@H](NC(=O)[C@H](CC(=O)O)NC(=O)[C@H](CC(C)C)NC(=O)[C@](C)(Cc1ccccc1)NC(=O)[C@H](CCCCN)NC(=O)[C@H](CO)NC(=O)[C@@H](NC(=O)[C@H](CC(=O)O)NC(=O)[C@H](CO)NC(=O)[C@@H](NC(=O)[C@H](Cc1ccccc1)NC(=O)[C@@H](NC(=O)CNC(=O)[C@H](CCC(N)=O)NC(=O)C(C)(C)NC(=O)[C@@H](N)Cc1c[nH]cn1)[C@@H](C)O)[C@@H](C)O)C(C)C)[C@@H](C)O)C(C)C)C(=O)N[C@@H](CCC(=O)O)C(=O)N[C@@H](C)C(=O)NC(C)(C)C(=O)NCC(=O)O [Peptide 407],,,,0.209 nM,0.462 nM
